# Source: patent US12637410B2, “Vesicular monoamine transporter-2 ligands and their use in the treatment of psychostimulant abuse” (priority 2016, dated 2026)
# Read-outs that look alike come from different tables or passages of the source.
# Legend:
# VMAT2 = biological target: T1, VMAT2 (Rattus norvegicus, UniProt Q01827); assay: [3H]Dopamine ([3H]DA) uptake assay, vesicular preparation; type: biochemical
# T1 construct: from tissue; host or cells: rat striatum, isolated synaptic vesicles
# hERG channel = biological target: T2, hERG channel (Homo sapiens, UniProt Q12809); assay: [3H]Dofetilide binding assay, HEK-293 cell membrane preparation; conditions: hERG Binding: Mean Ki (nM)
# T2 construct: purchased; host or cells: HEK-293 cells stably expressing hERG (membranes)
# Procedure: Membranes were suspended in assay buffer (50 mM Tris, 10 mM KCl, 1 mM MgCl2, pH 7.4) prior to the experiment. […] Nonspecific binding was determined in the presence of amitriptyline (1 mM). Samples were incubated for 1 hr. at 24° C., followed by rapid filtration.
# [1] = Microsomal assays, human liver microsomes; conditions: for half-life at 0.08 µM: both, human, pH 7.4; for Microsomal stability assays: Species/Half-life (hr) Human: human liver microsomes
# Procedure: (§1) Each plate holds triplicate samples of two controls (0.4 mM) and up to 14 compounds (0.08 mM) in rat and human liver microsomes. Aliquots of each well of the plate (175 μl of each well) were transferred from the master plate into 5 assay plates. […] NADPH regenerating system solution A (6.05 ml, Fisher Scientific, #NC9255727) was combined with NADPH regenerating system solution B (1.21 ml, Fisher Scientific, #NC9016235) in potassium phosphate buffer (15.8 ml, 0.1 M, pH 7.4, 37° C.). The resulting NADPH solution (43.8 μl) was added to each well of all the 96-well assay plates and mixed with pipette briefly making the final protein and compound concentrations respectively: 0.5 mg/ml, 0.08 μM (0.4 μM for controls). Plates were sealed, and all plates except the 0-hr plate were incubated at 37° C., shaken at a speed of 60 rpm. A single assay plate was tested at each time point: 0.5 hr, 1 hr, 2 hr, and 4 hr. At each time point, 437.5 μL of pre-cooled internal standard was added each well of the plate to quench the reaction. […] 120 μl supernatant was transferred to a 96-well plate, centrifuged again and analyzed by UPLC-MS (Waters Inc., Milford, MA). The compounds and internal standard were detected by selected ion recording (SIR).
# (§2) The amount of material was measured as a ratio of peak area to the internal standard and graphed. Using the slope from the initial linear portion of this curve, the degradation rate constant is calculated using equation [1]. The rate constant was then used to calculate the compounds half-life in plasma using equation [2].
# [2] = biological target: dopamine transporter (DAT) (Rattus norvegicus, UniProt P23977); assay: [3H]DA uptake assay, synaptosomal preparation
# Procedure: [^3H]DA and [3H]5-HT uptake into striatal synaptosomes was determined to evaluate compound inhibition of the dopamine transporter (DAT) and the serotonin transporter (SERT), respectively. […] Assays were performed in duplicate in a total volume of 500 μL (for DAT assays) or 250 μL (for SERT assays). Aliquots of the synaptosomal suspension (25 μL for DAT, 50 μL for SERT) were added to tubes containing assay buffer and various concentrations of analog (1 nM-100 μM), and incubated at 34° C. for 5 min. Nonspecific uptake was determined in the presence of nomifensine (10 μM) for DAT assays or fluoxetine (10 μM) for SERT assays. […] Samples were placed on ice, and 50 μL of 0.1 μM [^3H]DA (for DAT assays) or 25 μL of 0.1 μM [^3H]5-HT (for SERT assays) was added to each tube, and incubated for 10 min at 34° C. Reactions were terminated by addition of 3 mL of ice-cold assay buffer and subsequent filtration and radioactivity retained by the filters was determined by liquid scintillation spectrometry (Tri-Carb 2100TR liquid scintillation analyzer; PerkinElmer Life and Analytical Sciences, Boston, MA).
# [3] = Microsomal assays, rat liver microsomes; conditions: for CLint scaled at 0.08 µM / half-life at 0.08 µM: female, Sprague-Dawley, rat, pH 7.4; for Microsomal stability assays: Species/Half-life (hr) Rat: rat liver microsomes
# Procedure: as §1, §2
# [4] = Pharmacokinetic assays in rats (iv, po, sc); conditions: for bioavailability: male, Sprague-Dawley, in vivo; for bioavailability / Bioavail. (F %) Frat: rat
# Procedure: (§3) Animals: Oral and intravenous dose pharmacokinetic studies were conducted in tandem in age matched female Swiss Webster mice and/or age matched male Sprague-Dawley rats purchased from Envigo-Harlan. Animals were housed in IVC cages with wood chip bedding and given food and water ad libitum.
# (§4) Dose Formulation and Administration Volumes: Hydrochloric acid salts or free base forms were used for formulation.
# (§5) Pharmacokinetic Studies: Groups of 6 animals were dosed with formulated test compound by bolus lateral tail vein injection (iv), by oral gavage (po), or by subcutaneous injection (sc) into left hind flank. […] Whole blood samples were collected into microtubes and centrifuged at 4000×g for 2 min. Plasma supernatants were collected and immediately frozen on dry ice, then transferred to a −80° C. freezer to await processing for LC-MS/MS analysis. Typical dose rates were 2 mg/kg iv, 10 mg/kg po, and <30 mg/kg sc.
# (§6) Plasma calibrators (usually 0.25, 0.5, 1, 5, 15, 30, 100, 400, 700, and 1000 ng/mL) were generated by the addition of 5 μL of appropriate spiking solution into 100 μL blank plasma followed by vortex mixing. Plasma QC samples (usually 0.75, 25, 500, and 850 ng/mL) were prepared in a similar manner using an independent 2nd analyte stock solution. Calibrators and QCs were stored alongside experimental samples at −80° C. until analysis.
# (§7) Analyte and internal standard contained in 5 μL sample injections (15° C. temp.; 1.5 mL 0.1% formic acid in MeOH or 1:1 MeOH: isopropanol injector rinse; 10 sec rinse dip time) were eluted from a guard-protected (2.7 μL, 3×5 mm) Agilent Poroshell 120 EC-C18 (2.7 μL, 3×50 mm; oven temp. 40° C.) analytical column with a 0.1% formic acid in water (mobile Phase-A): 0.1% formic acid in acetonitrile (mobile Phase-B) gradient. […] Positive-mode ESI Turbo V® source and MS gas, temperature, and probe settings were optimized for 0.4 mL flow rate at CUR=35/ISV=4500/TEM=550/GS1=65/GS2=65/CAD=10 with the probe position=7/0.5 horizontal/vertical. […] ISTD voltage potentials were set at DP=70, EP=10, CE=35 and CXP=6. Sample sequences consisted of single randomized experimental sample injections flanked by sets of blanks, calibrators and QCs with QCs interspersed, as needed, to maintain >5% total QC to experimental sample occurrence. High QCs (5,000 and 10,000 ng/mL) were inserted at end of sequence prior to second calibrator injections. Calibration curves were typically constructed by weighted (1/x^2) non-linear regression analysis of analyte/ISTD concentration ratios to analyte/ISTD peak area ratios using AB SciexMultiQuant software (Ver 3.0.31721.0).
# [5] = Pharmacokinetic assays in mice (iv, po, sc); type: in vivo
# in vivo = conditions: male, Sprague-Dawley, rat, po
# Procedure: as §3, §4, §5, §6, §7
# [6] = [3H]dofetilide binding, HEK-293 membranes, mean of n>=3 unless N given
# [7] = Table 4, mean, minimally n = 3, read-out: VMAT2 (rat) Inhibition: Mean Ki
# [8] = [3H]DA uptake, rat vesicular preparation, mean of n>=3 unless N given, read-out: VMAT2 (rat) Inhibition: Mean Ki
# Chain of dopamine transporter (DAT) (P23977 whole entry): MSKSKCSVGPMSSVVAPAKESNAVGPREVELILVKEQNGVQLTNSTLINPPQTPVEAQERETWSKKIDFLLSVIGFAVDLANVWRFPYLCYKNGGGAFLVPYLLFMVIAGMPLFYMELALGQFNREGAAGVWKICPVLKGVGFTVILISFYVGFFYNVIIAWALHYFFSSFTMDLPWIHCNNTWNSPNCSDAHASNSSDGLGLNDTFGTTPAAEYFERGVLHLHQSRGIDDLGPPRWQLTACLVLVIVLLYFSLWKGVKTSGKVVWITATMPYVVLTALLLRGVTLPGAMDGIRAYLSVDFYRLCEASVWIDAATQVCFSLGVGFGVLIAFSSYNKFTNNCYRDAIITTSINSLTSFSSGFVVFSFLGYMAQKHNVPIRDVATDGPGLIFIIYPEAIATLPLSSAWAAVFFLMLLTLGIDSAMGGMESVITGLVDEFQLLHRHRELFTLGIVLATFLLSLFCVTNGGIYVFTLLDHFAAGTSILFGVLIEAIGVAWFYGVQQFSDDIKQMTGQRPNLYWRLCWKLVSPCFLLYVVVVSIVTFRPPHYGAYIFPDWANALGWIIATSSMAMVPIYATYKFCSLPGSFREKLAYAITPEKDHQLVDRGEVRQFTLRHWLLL
# T2 sequence (Q12809 whole entry): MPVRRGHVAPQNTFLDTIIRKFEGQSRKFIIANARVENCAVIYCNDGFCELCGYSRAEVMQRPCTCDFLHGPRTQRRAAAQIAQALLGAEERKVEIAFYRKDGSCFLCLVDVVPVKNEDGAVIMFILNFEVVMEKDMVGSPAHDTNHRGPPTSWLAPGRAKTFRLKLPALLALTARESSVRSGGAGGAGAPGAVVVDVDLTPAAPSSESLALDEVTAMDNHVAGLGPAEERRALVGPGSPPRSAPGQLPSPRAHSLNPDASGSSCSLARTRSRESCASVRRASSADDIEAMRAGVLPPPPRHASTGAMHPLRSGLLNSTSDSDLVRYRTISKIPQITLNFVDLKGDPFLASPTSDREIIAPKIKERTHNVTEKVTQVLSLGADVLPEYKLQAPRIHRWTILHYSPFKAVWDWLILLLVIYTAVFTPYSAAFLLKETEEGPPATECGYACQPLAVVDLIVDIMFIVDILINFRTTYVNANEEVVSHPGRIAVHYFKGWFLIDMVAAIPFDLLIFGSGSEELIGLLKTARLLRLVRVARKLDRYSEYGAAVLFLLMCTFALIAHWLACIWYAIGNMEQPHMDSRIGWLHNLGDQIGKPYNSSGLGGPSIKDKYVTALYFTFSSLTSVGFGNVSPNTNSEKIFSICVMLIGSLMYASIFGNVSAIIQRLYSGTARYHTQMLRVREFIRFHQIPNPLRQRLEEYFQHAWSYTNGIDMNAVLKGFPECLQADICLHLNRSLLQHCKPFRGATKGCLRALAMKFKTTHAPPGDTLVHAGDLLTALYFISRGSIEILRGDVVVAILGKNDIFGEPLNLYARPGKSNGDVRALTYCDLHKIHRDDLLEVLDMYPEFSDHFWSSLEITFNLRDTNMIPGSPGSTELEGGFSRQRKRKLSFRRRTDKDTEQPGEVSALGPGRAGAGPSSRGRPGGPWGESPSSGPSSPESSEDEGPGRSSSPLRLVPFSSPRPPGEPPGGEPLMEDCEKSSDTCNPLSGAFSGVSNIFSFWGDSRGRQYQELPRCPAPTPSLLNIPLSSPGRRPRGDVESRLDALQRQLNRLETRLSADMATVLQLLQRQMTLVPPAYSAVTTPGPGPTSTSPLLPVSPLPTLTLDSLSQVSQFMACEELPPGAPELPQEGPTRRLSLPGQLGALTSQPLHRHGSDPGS
# T1 sequence (Q01827 whole entry): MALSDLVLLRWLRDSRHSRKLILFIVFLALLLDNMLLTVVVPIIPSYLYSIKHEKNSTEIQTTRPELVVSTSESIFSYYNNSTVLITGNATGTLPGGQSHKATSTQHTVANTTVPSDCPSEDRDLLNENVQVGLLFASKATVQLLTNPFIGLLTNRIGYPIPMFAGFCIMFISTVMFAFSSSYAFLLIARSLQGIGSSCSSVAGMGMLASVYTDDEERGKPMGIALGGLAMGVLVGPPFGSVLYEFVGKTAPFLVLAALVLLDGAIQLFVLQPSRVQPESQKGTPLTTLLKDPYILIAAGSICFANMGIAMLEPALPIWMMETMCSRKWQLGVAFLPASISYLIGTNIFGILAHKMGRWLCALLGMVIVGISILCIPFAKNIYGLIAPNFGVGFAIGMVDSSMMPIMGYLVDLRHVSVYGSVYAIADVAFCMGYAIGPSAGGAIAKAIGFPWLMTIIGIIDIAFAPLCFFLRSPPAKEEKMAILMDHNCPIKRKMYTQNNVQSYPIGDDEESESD
SMILES,Ki (VMAT2) [nM],"Ki (hERG channel; Table 4, mean, minimally n = 3) [nM]",Ki [2] [nM],CLint scaled at 0.08 µM [3] [mL/min/kg],Bioavail. (F %) Fmice [5],further results
CC(Cc1ccccc1)NCCCc1ccc(OC(F)(F)F)cc1 (centres unmarked) [Compound 258],16,,,,,Ki (hERG channel; [6]): 90 nM; half-life at 0.08 µM [1]: > 240 min
CC(Cc1cccc(F)c1)NCCCc1ccc(C(N)=O)cc1 (centres unmarked) [Compound 309],,12000,1630,57,,"Ki (VMAT2; [7]): 6 nM; bioavailability ([4]; po, 10 mg/kg): 5%; bioavailability ([4]; sc): 76%"
CC(Cc1ccc(F)cc1)NCCCc1ccc(F)cc1 (centres unmarked) [Compound 190],9,,,,Fmice: 5%,
CC(Cc1ccccc1)NCCCc1ccncc1 (centres unmarked) [Compound 204],,,,,Fmice: 10% (prelim rat done),
COc1ccc(CCCN[C@@H](C)Cc2ccccc2)cc1 [Compound 313],72,4160,,978,,half-life at 0.08 µM [3]: < 6 min; Bioavail. (F %) Frat ([4]; route not stated): Frat: 3.4%
CC(Cc1ccccc1)NCCCc1ccc(O)cc1 (centres unmarked) [Compound 223],,,,,Fmice: 8.9%,
CC(Cc1ccc(F)cc1)NC(=O)CCc1ccc(C#N)cc1 (centres unmarked) [Compound 294],40600,,,,,half-life at 0.08 µM [1]: 48 min; half-life at 0.08 µM [3]: 48 min
CC(Cc1ccccc1)NCCCc1ccc(N)cc1 (centres unmarked) [Compound 220],,,,,Fmice: quant; Frat: quant,Bioavail. (F %) Frat [4]: Fmice: quant; Frat: quant
CC(Cc1ccc(F)cc1)NCCCc1ccc(CN)cc1 (centres unmarked) [Compound 285],461,,,,,half-life at 0.08 µM [1]: > 240 min; half-life at 0.08 µM [3]: > 240 min
CC(Cc1ccc(F)c(F)c1)NCCCc1cccc(NC(N)=O)c1 (centres unmarked) [Compound 235],4,4380,1290,71,,Ki (hERG channel; [6]): 4380 nM; bioavailability (in vivo): 8%
CC(Cc1cccc(NC(N)=O)c1)NCCCc1ccc(F)cc1 (centres unmarked) [Compound 306],9,2750,2970,47,,
CC(Cc1ccc(F)c(F)c1)NCCCc1ccc(C(N)=O)c(Cl)c1 (centres unmarked) [Compound 297],21,5020,5820,< 17,,
CC(Cc1ccccc1)NCCCc1ccc(F)cc1 (centres unmarked) [Compound 249],6,,,,Fmice: 2.0%,Ki (hERG channel; [6]): 3000 nM; half-life at 0.08 µM [1]: 72 min; half-life at 0.08 µM [3]: 18 min
CC(Cc1ccccc1)NCCCc1ccc(C(F)(F)F)cc1 (centres unmarked) [Compound 194],,,,,Fmice: 11.9%,
CC(Cc1ccncc1)NCCCc1ccc(F)cc1 (centres unmarked) [Compound 187],,,,,Fmice: 9.4%,half-life at 0.08 µM [1]: > 240 min
CCC(Cc1ccccc1)NCCCc1ccc(O)cc1 (centres unmarked) [Compound 207],,,,,,Microsomal stability assays: Species/Half-life (hr) Human [1]: Rat: 0.1 hr Human: 0.1 hr; Microsomal stability assays: Species/Half-life (hr) Rat [3]: Rat: 0.1 hr Human: 0.1 hr
O=[N+]([O-])c1ccc(CCCNC(CF)Cc2ccc(F)cc2)cc1 (centres unmarked) [Compound 123],,,,,,Ki (VMAT2; [8]): 44 nM; Microsomal stability assays: Species/Half-life (hr) Human [1]: 1.2 h; Microsomal stability assays: Species/Half-life (hr) Rat [3]: 0.4 h
CC(Cc1ccc(-c2cccnc2)cc1)NCCCc1ccc(F)cc1 (centres unmarked) [Compound 192],,,,,Fmice: 6.7%,
CC(Cc1cccc(C(N)=O)c1)NCCCc1ccc(F)cc1 (centres unmarked) [Compound 301],,1310,6070,22,,Ki (VMAT2; [7]): 43 nM

SMILES,Ki (VMAT2) [nM],"Ki (hERG channel; Table 4, mean, minimally n = 3) [nM]",Ki [2] [nM],CLint scaled at 0.08 µM [3] [mL/min/kg],Bioavail. (F %) Fmice [5],further results
CC(Cc1ccc(F)c(F)c1)NCCCc1ccc2[nH]ncc2c1 (centres unmarked) [Compound 234],54,1020,703,114,,Ki (hERG channel; [6]): 1020 nM
CC(Cc1ccc2nccnc2c1)NCCCc1ccc(S(N)(=O)=O)cc1 (centres unmarked) [Compound 305],46,4390,20500,43,,
CC(Cc1ccc(F)cc1)NCCCc1ccncc1 (centres unmarked) [Compound 176],,,,,Fmice: ~22% (prelim rat done),Ki (hERG channel; [6]): 5100 nM
CC(Cc1ccc2[nH]cnc2c1)NCCCc1ccc(F)cc1 (centres unmarked) [Compound 303],22,2900,4770,40,,
CC(Cc1ccc(C(F)(F)F)cc1)NCCCc1ccc(O)cc1 (centres unmarked) [Compound 209],,,,,,Microsomal stability assays: Species/Half-life (hr) Human [1]: 0.1 h; Microsomal stability assays: Species/Half-life (hr) Rat [3]: 0.2 h
CC(Cc1ccc(F)cc1)NCCCc1ccc(C(N)=O)cc1 (centres unmarked) [Compound 298],,12400,3980,18,,Ki (VMAT2; [7]): 16 nM
CC(Cc1ccc(F)c(F)c1)NCCCc1ccc2nn[nH]c2c1 (centres unmarked) [Compound 312],8,3000,1900,115,,"bioavailability ([4]; po, 10 mg/kg): 7%; bioavailability ([4]; sc): 42%"
CC(Cc1ccc(-c2cncnc2)cc1)NCCCc1ccc(F)cc1 (centres unmarked) [Compound 196],8,,,,Fmice: 3.4% (prelim rat done),
CC(Cc1ccc(F)c(F)c1)NCCCc1ccc(C(N)=O)c(F)c1 (centres unmarked) [Compound 299],29,12100,4210,19,,
CC(Cc1ccccc1)NCCCc1ccc(S)cc1 (centres unmarked) [Compound 260],,,,,Fmice: 0.9%,
CC(Cc1ccc(F)c(F)c1)NCCCc1ccc2cnoc2c1 (centres unmarked) [Compound 311],51,4200,2720,117,,
CC(Cc1ccc(F)c(F)c1)NCCCc1cccc(C(N)=O)c1 (centres unmarked) [Compound 237],,4780,3120,30,,"Ki (VMAT2; [8]): 32 nM; Ki (hERG channel; [6]): 4780 nM; bioavailability ([4]; po, 10 mg/kg): 2%"
CC(Cc1ccc(F)c(F)c1)NCCCc1ccc2nonc2c1 (centres unmarked) [Compound 227],49,,,,,Ki (hERG channel; [6]): 650 nM; Bioavail. (F %) ([4]; species not given): No detection
CC(Cc1ccc(C(N)=O)cc1)NCCCc1ccc(F)cc1 (centres unmarked) [Compound 304],,1610,5570,41,,Ki (VMAT2; [7]): 31 nM
CC(Cc1ccc2nccnc2c1)NCCCc1ccc(F)cc1 (centres unmarked) [Compound 308],13,1900,2930,56,,
CC(Cc1ccccc1)NCCCc1ccc(S)cc1 (centres unmarked) [Compound 216],,,,,Fmice: 0.9%,Microsomal stability assays: Species/Half-life (hr) Rat ([3]; cell prints %): Rat: 0.3%
CC(Cc1ccc(F)c(F)c1)NCCCc1ccc2nc[nH]c2c1 (centres unmarked) [Compound 228],41,6770,3040,48,,"Ki (hERG channel; [6]): 6770 nM; bioavailability ([4]; po, 10 mg/kg): 6%; Bioavail. (F %) Frat [4]: Frat: 5%"
CC(Cc1cc(F)cc(F)c1)NCCCc1ccc(C(N)=O)cc1 (centres unmarked) [Compound 300],,8100,1570,21,,Ki (VMAT2; [7]): 6 nM
CC(Cc1ccc(F)c(F)c1)NCCCc1ccc(C(N)=O)cc1 (centres unmarked) [Compound 231],,3500,2750,23,,"Ki (VMAT2; [8]): 29 nM; Ki (hERG channel; [6]): 3500 nM; bioavailability ([4]; po, 10 mg/kg): 62%; bioavailability ([4]; sc): 84%; Bioavail. (F %) Frat [4]: Frat: 80%"
